Experimental data reported in PMC11790914, “Chemogenomics for steroid hormone receptors (NR3)” (Communications Chemistry, 2025).
Several values for one entry are separate records, joined by “and”; a condition that tells them apart may be missing. Identical values can stand only once.

Columns and labels:
[1] = test system: Gal4-VP16; assay type: cell-based; details: 1 µM
[2] = molecular target: T1, ABL1 (Homo sapiens, UniProt P00519); assay: Liability panel screening by DSF: ABL1; assay type: binding; details: DSF, 20 µM, n=2; read-out: Mean ΔTM ABL1
T1 construct: made in house
Summary of the method: (§1)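 ∆Tm in K was taken from Boltzmann-fitted unfolding inflection points, run in duplicate with a temperature ramp of 3 °C per minute up to 85 °C. Each recombinant protein (2 µM) was in HEPES 10 mM pH 7.5 and NaCl 500 mM, with SYPRO Orange dye at 1:1000.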

[3] = molecular target: T2, AURKA (Homo sapiens, UniProt O14965); assay: Liability panel screening by DSF: AURKA; assay type: binding; details: DSF, 20 µM, n=2; read-out: Mean ΔTM AURKA
T2 construct: made in house
T2 sequence (O14965 1-403): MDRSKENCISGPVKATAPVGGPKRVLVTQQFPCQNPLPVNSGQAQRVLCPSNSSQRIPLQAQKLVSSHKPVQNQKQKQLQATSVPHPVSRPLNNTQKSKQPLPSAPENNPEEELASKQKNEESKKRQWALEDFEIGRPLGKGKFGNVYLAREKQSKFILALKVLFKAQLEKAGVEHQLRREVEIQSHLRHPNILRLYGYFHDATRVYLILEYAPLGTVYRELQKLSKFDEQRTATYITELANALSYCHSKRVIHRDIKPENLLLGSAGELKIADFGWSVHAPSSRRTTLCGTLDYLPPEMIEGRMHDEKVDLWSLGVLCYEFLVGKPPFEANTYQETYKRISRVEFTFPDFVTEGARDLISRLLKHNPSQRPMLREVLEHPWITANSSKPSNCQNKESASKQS
Summary of the method: as §1

[4] = molecular target: T3, CDK2 (Homo sapiens, UniProt P24941); assay: Liability panel screening by DSF: CDK2; assay type: binding; details: DSF, 20 µM, n=2; read-out: Mean ΔTM CDK2
T3 construct: made in house
Summary of the method: as §1

[5] = molecular target: T4, FGFR3 (Homo sapiens, UniProt P22607); assay: Liability panel screening by DSF: FGFR3; assay type: binding; details: DSF, 20 µM, n=2; read-out: Mean ΔTM FGFR3
T4 construct: made in house
Summary of the method: as §1

[6] = molecular target: T5, GSK3B (Homo sapiens, UniProt P49841); assay: Liability panel screening by DSF: GSK3B; assay type: binding; details: DSF, 20 µM, n=2; read-out: Mean ΔTM GSK3B
T5 construct: made in house

[7] = molecular target: T6, BRD4 (Homo sapiens, UniProt O60885); assay: Liability panel screening by DSF: BRD4; assay type: binding; details: DSF, 20 µM, n=2; read-out: Mean ΔTM BRD4
T6 construct: This panel comprised ten highly ligandable kinases and bromodomains; made in house
Summary of the method: as §1

[8] = molecular target: T7, BRPF1 (Homo sapiens, UniProt P55201); assay: Liability panel screening by DSF: BRPF1; assay type: binding; details: DSF, 20 µM, n=2; read-out: Mean ΔTM BRPF1
T7 construct: This panel comprised ten highly ligandable kinases and bromodomains; made in house
T7 sequence (P55201 628-732 limits assumed): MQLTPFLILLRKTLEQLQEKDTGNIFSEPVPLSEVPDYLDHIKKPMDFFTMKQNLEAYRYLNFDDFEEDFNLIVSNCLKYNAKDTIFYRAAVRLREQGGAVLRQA
Summary of the method: as §1

[9] = molecular target: T8, CSNK1D (Homo sapiens, UniProt P48730); assay: Liability panel screening by DSF: CSNK1D; assay type: binding; details: DSF, 20 µM, n=2; read-out: Mean ΔTM CSNK1D
T8 construct: made in house
Summary of the method: as §1

[10] = molecular target: T9, MAPK1 (Homo sapiens, UniProt P28482); assay: Liability panel screening by DSF: MAPK1; assay type: binding; details: DSF, 20 µM, n=2; read-out: Mean ΔTM MAPK1
T9 construct: made in house
Summary of the method: as §1

[11] = molecular target: T10, TRIM24 (Homo sapiens, UniProt O15164); assay: Liability panel screening by DSF: TRIM24; assay type: binding; details: DSF, 20 µM, n=2; read-out: Mean ΔTM TRIM24
T10 construct: This panel comprised ten highly ligandable kinases and bromodomains; made in house
T10 sequence (O15164 899-1004 limits assumed): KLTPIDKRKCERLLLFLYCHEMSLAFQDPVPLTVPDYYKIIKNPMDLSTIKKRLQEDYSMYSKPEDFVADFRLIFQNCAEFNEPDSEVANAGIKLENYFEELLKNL
Summary of the method: as §1

[12] = test system: HEK293T cells; assay: Cytotoxicity: metabolic activity (WST-8 / CCK-8 assay); details: single replicates
Method: Cells were incubated with the test compounds at the indicated concentrations solubilized with 0.1% DMSO for 24 h. Growth-rate was determined based on the change in confluence over 24 h normalized to the change in confluence of cells treated with the 0.1% DMSO control (n = 10). Metabolic activity was determined with a water-soluble tetrazolium-8 (WST-8) assay (n = 8) after 24 h treatment. Apoptotic cells were detected with a fluorogenic DNA dye coupled to the caspase-3/7 recognition sequence (DEVD) after 24 h treatment and the apoptotic cell count was normalized to 0.1% DMSO treated cells (n = 6).
HEK293T cells (German Collection of Microorganisms and Cell Culture GmbH, DSMZ; #ACC305) were cultured in DMEM high glucose, supplemented with 10% fetal calf serum (FCS), sodium pyruvate (1 mM), penicillin (100 µ/mL) and streptomycin (100 µg/mL) at 37 °C and 5% (v/v) CO2, and seeded in pre-coated (10 µg/mL collagen G solution (Merck KgaA; #L7213) for 30 min at 37 °C) 96-well plates (2 × 10^5 cells per well). After 24 h, the cells were treated with the respective NR3 CG compound candidate at the recommended concentration, bexarotene (100 µM) or doxorubicin (30 µM) as positive controls in DMEM high glucose supplemented with 0.1% FCS, penicillin (100 µ/mL), streptomycin (100 µg/mL) and 0.1% DMSO, or 0.1% DMSO alone as an untreated control. Each sample was prepared in at least four biologically independent replicates. […] Thereafter, the medium was aspirated and the cells were incubated for 3 h with 90 µL DMEM high glucose supplemented with 0.2% FCS, penicillin (100 µ/mL) and streptomycin (100 µg/mL) and additionally containing 10 µL Cell Counting Kit 8 solution (CCK-8; MedChemExpress, Monmouth Junction, New York, USA; #HY-K0301), and absorbance was measured at 1 h, 2 h and 3 h of incubation at 450 nm on a Tecan Spark Cyto to assess metabolic activity of the cells. Before drug administration, after the first medium exchange, 24 h after drug administration, and after fluorescence imaging cell confluence was assessed using the Tecan Spark Cyto, to account for changes in cell confluence due to drug administration and cell handling. Compound effects on cell confluence, apoptosis, metabolic activity and necrosis were normalized to the vehicle control of each biological replicate individually.

[13] = test system: HEK293T cells; assay: Cytotoxicity: apoptosis induction (caspase-3/7 DEVD fluorogenic DNA dye); details: single replicates
[14] = test system: HEK293T cells; assay: Cytotoxicity: necrosis induction (red fluorescent dye for permeable plasma membranes); assay type: cell-based; details: 3 µM, 24 h, necrotic cell count normalized to 0.1% DMSO, single replicates;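 further: compounds applied in DMEM high glucose with 0.1% FCS and 0.1% DMSO, necrotic HEK293T cells counted by red staining of cells whose plasma membranes had become permeable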
[15] = test system: NF-κB activity in HEK293 NF-κB reporter cells; assay: NF-kB activity assay (GFP reporter, ionomycin/PMA); assay type: cell-based; details: n=3
Summary of the method: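 HEK293 NF-κB GFP reporter cells given compound in 0.1% DMSO for 4 h, then stimulated with ionomycin 100 ng/mL plus PMA 10 ng/mL. Imaged every 90 min over 24 h; GFP-positive cell count normalized to confluence, three independent biological replicates.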

T5 sequence (P49841 whole entry, species assumed): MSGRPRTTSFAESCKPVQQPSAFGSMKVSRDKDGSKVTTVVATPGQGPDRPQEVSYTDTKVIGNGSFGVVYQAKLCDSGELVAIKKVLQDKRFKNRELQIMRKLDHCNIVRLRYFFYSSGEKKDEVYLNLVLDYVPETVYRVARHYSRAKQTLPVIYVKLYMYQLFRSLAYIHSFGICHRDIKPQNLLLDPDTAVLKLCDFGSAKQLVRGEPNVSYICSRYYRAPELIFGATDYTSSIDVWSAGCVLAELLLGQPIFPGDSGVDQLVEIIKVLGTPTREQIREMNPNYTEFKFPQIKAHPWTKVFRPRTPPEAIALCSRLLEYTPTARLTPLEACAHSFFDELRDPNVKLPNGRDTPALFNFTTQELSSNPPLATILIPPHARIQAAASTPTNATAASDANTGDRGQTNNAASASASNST
T4 sequence (P22607 23-806, species assumed): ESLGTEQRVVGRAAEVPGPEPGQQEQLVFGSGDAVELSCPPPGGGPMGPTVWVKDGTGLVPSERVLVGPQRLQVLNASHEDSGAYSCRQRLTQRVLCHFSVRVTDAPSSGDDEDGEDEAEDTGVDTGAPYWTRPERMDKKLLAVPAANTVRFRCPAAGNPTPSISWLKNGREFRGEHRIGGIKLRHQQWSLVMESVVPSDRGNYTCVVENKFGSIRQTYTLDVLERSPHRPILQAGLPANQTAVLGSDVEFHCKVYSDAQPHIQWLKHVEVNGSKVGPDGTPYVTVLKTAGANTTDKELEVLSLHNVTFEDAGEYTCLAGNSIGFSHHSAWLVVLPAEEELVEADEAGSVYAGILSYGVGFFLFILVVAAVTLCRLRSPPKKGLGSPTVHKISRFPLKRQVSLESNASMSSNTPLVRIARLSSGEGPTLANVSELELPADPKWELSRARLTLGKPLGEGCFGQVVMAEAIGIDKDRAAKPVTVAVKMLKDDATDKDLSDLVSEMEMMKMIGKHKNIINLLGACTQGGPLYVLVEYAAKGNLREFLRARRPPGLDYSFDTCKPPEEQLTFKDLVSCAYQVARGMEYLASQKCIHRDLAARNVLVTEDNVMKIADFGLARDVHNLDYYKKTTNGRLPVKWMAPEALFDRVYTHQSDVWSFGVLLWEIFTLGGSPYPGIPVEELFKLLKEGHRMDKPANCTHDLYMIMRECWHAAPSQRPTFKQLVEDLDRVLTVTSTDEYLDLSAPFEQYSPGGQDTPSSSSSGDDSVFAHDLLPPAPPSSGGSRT
T1 sequence (P00519 whole entry, species assumed): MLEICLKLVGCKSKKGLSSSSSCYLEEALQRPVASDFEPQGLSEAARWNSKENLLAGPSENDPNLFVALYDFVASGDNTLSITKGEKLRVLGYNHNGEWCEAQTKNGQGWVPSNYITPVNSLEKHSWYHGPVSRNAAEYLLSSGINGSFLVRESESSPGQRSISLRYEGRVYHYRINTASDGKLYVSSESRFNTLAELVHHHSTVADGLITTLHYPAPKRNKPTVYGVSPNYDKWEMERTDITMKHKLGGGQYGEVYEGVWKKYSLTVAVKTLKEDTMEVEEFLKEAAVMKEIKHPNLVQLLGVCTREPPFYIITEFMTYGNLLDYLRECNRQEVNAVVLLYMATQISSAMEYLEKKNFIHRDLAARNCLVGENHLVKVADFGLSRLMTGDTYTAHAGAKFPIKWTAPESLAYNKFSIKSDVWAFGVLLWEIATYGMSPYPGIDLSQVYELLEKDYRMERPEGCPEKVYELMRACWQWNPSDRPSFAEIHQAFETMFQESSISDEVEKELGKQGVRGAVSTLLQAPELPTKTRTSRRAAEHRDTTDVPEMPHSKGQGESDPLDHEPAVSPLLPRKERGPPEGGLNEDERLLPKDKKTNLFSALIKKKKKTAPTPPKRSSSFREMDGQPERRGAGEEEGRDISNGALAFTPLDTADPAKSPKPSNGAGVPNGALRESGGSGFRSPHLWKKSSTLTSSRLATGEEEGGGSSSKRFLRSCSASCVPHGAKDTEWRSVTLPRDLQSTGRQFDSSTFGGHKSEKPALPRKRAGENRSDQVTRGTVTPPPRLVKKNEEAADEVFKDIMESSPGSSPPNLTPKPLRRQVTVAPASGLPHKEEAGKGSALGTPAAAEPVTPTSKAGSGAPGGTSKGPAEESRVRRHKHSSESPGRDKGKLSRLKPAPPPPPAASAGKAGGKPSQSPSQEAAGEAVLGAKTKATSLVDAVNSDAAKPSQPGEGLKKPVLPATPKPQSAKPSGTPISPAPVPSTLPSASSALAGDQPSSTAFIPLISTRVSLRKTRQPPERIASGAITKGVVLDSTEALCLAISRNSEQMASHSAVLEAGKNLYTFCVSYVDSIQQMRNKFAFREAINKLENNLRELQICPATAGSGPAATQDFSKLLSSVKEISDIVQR
T8 sequence (P48730 whole entry, species assumed): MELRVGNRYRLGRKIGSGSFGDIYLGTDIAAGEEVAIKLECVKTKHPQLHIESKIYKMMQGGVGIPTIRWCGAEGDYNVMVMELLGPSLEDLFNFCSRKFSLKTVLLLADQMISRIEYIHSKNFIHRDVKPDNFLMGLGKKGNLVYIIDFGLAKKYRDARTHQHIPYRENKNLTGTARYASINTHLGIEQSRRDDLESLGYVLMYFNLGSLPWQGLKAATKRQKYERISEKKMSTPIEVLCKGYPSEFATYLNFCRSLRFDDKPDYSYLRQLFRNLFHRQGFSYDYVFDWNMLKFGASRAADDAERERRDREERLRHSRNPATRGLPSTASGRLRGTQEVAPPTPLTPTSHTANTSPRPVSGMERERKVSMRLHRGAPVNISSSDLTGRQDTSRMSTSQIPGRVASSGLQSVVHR
T9 sequence (P28482 whole entry, species assumed): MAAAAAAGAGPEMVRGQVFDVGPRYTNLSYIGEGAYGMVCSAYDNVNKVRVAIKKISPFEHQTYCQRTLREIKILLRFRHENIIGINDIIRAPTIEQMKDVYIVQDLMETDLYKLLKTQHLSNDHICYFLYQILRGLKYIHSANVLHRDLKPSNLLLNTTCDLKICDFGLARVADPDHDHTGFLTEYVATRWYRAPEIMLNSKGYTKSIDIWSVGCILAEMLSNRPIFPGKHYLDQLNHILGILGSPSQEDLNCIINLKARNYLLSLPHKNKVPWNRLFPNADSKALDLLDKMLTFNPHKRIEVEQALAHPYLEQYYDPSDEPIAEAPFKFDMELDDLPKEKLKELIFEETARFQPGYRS

CC/C(=C(/c1ccc(/C=C/C(=O)O)cc1)c1ccc2[nH]ncc2c1)c1ccc(F)cc1Cl [ARN810]
VP16 control [fold reporter gene activity] (n=3), n=1 ([1]; replicate n=1): 1.06 fold | VP16 control [fold reporter gene activity] (n=3), n=2 ([1]; replicate n=2): 1.05 fold | VP16 control [fold reporter gene activity] (n=3), n=3 ([1]; replicate n=3): 1.02 fold | ΔTm at 20 µM [2]: -5.16 °C | ΔTm at 20 µM [3]: 1.69 °C | ΔTm at 20 µM [4]: -3.66 °C | ΔTm at 20 µM [5]: -5.4 °C | ΔTm at 20 µM [6]: 3.37 °C | ΔTm at 20 µM [7]: -0.16 °C | ΔTm at 20 µM [8]: 0 °C | ΔTm at 20 µM [9]: -4.37 °C | ΔTm at 20 µM [10]: 0 °C | ΔTm at 20 µM [11]: 0 °C | Metabolic activity [MA] ([12]; 1 µM, DMSO 0.1% = 1.00): 0.99 and 1.09 and 0.98 and 0.97 and 1.01 and 1.03 | Apoptosis induction [AI] ([13]; 1 µM, DMSO 0.1% = 1.00): 0.78 and 0.92

CC#C[C@]1(O)CC[C@H]2[C@@H]3CCC4=CC(=O)CCC4=C3[C@@H](c3ccc(N(C)C)cc3)C[C@@]21C [Mifepristone]
Necrosis induction [NI] [14]: 1.14 and 0.95 and 0.92 and 0.99 | ΔTm at 20 µM [2]: 0.11 °C | ΔTm at 20 µM [3]: -1.55 °C | ΔTm at 20 µM [4]: -0.0248 °C | ΔTm at 20 µM [5]: 0.14 °C | ΔTm at 20 µM [6]: -1.3 °C | ΔTm at 20 µM [7]: -2.39 °C | ΔTm at 20 µM [8]: -2.63 °C | ΔTm at 20 µM [9]: 0.0217 °C | ΔTm at 20 µM [10]: -0.7 °C | ΔTm at 20 µM [11]: -0.92 °C | Mean NFκB response ([15]; 3 µM, 1,5 h): 3613.33 GFP+-cells/confluence ∙ 1000 | Mean NFκB response ([15]; 3 µM, 4,5 h): 4100.00 GFP+-cells/confluence ∙ 1000 | Mean NFκB response ([15]; 3 µM, 7,5 h): 7536.67 GFP+-cells/confluence ∙ 1000 | Mean NFκB response ([15]; 3 µM, 10,5 h): 17493.33 GFP+-cells/confluence ∙ 1000 | Mean NFκB response ([15]; 3 µM, 13,5 h): 25396.67 GFP+-cells/confluence ∙ 1000 | Mean NFκB response ([15]; 3 µM, 16,6 h): 31560.00 GFP+-cells/confluence ∙ 1000 | Mean NFκB response ([15]; 3 µM, 19,5 h): 36246.67 GFP+-cells/confluence ∙ 1000 | Mean NFκB response ([15]; 3 µM, 22,5 h): 39496.67 GFP+-cells/confluence ∙ 1000 | Mean NFκB response ([15]; 3 µM, 3 h): 3656.67 GFP+-cells/confluence ∙ 1000 | Mean NFκB response ([15]; 3 µM, 6 h): 4860.00 GFP+-cells/confluence ∙ 1000 | Mean NFκB response ([15]; 3 µM, 9 h): 12946.67 GFP+-cells/confluence ∙ 1000 | Mean NFκB response ([15]; 3 µM, 12 h): 21246.67 GFP+-cells/confluence ∙ 1000 | Mean NFκB response ([15]; 3 µM, 15 h): 28726.67 GFP+-cells/confluence ∙ 1000 | Mean NFκB response ([15]; 3 µM, 18 h): 34060.00 GFP+-cells/confluence ∙ 1000 | Mean NFκB response ([15]; 3 µM, 21 h): 38440.00 GFP+-cells/confluence ∙ 1000 | Mean NFκB response ([15]; 3 µM, 24 h): 40840.00 GFP+-cells/confluence ∙ 1000 | Metabolic activity [MA] ([12]; 3 µM, HEK293T, 24 h, WST-8, normalized to 0.1% DMSO): 1.08 and 1.01 and 1.00 and 1.09 and 1.04 and 1.03 and 1.16 (2×) | Apoptosis induction [AI] ([13]; 3 µM, HEK293T, 24 h, apoptotic cell count normalized to 0.1% DMSO): 1.09 and 1.02 and 1.10 and 1.15 and 0.56 and 0.53
